Assay results from patent US4230719A, “Novel 2-[4-(3-methyl-2-thienyl)phenyl]propionic acid and pharmaceutically acceptable salt thereof and method for treating symptoms of inflammation and pain” (Toyama Chemical Co., Ltd., priority 1977, dated 1980).
Where two headings read alike, the source gives them in different places.

Tests used:
[1] = Test for ulcerogenic action (i), single dose, fasted rats; type: in vivo; conditions: rat, in vivo, po
Procedure: (§1) (4) Test for ulcerogenic action
(§2) After 18 hours, the rats were killed by suffocation with chloroform and their stomachs were excised. After having been filled with 5 ml of 1% formalin to fix the gastric mucosa, each stomach was incised along the greater curvature to inspect grossly the extent of injury of the gastric mucosa. The extent of injury was scored as follows: 0, no lesion; 1, petechia or erosion; 2, 1-5 small ulcers; 3, many small ulcers; 4, many large ulcers or perforation. The intestinal injury was evaluated based on the incidence of erosion.

[2] = system: gastric mucosa and intestine; assay: as above; type: in vivo; conditions: for Gastric glandular score: 18 hours, score 0 (no lesion) to 4 (many large ulcers or perforation)
Procedure: as §1, §2

[3] = system: Carrageenin-induced edema; assay: Carrageenin-induced edema; type: in vivo, rat (Donryu strain, male); conditions: Rattus norvegicus, po, mean in 5 hours, read-out: Inhibitory percent of swelling
Procedure: (iii) Carrageenin-induced edema
Each of the 6 Donryu strain male rats per group (each weighing about 140 g), which had been fasted overnight, was orally loaded with 4 ml of water and, after 30 minutes, the test compound was orally administered thereto. Thirty minutes thereafter, a 1%(Wt/V) solution of carrageenin in physiological saline was subcutaneously injected into the subplantar region of the left hind paw. At a time interval of one hour, starting from the end of the first hour till the end of the fifth hour after injection of carrageenin, the paw volume was measured by means of a manometer and pressure transducer. By comparison with the percent increase in swelling of the control group of rats to which a 0.5%(V/V) solution of Tween 80 had been administered, the mean inhibitory percent in 5 hours of swelling was calculated by the following equation: [formula]

Vascular permeability [4] = assay: Vascular permeability in mice (Whittle's method); type: in vivo, mouse (ddY strain, male); conditions: for Inhibition: dye leakage
Procedure: (i) Vascular permeability in mice (Whittle's method)
The test compound was orally administered to each ddY strain male mouse (weighing each about 20 g). After 20 minutes, 0.1 ml/10 g of a 4%(Wt/V) solution of Pontamine Sky Blue in physiological saline was intravenously injected and 10 minutes thereafter 0.1 ml/10 g of a 0.7%(V/V) solution of acetic acid in physiological saline was injected intraperitoneally. After 30 minutes, the mice were killed by suffocation with chloroform. After immediate laparotomy, the dye leaked into the peritoneal cavity was washed out with distilled water. The washings were made up with water to 30 ml and the absorbance at 620 mμ was measured. The amount of leaked dye per 20 g of mouse weight was compared.

[5] = system: gastric mucosa and intestine; assay: Test for ulcerogenic action (ii), three doses, rats on normal meal; type: in vivo, rat (Donryu strain, male); design: scale not given here
Procedure: (ii) In the same manner as in (i), the test compound was orally administered to each Donryu strain male rat (weighing about 180 g; 10 rats per group) which had received normal meal. The second dose was administered after 8 hours and the third dose after 16 hours from the second dose. Five hours after the last administration, the rats were treated in the same manner as in (i). The gastric mucosa injury and the intestinal injury were scored in the same manner as in (i).

Vascular permeability [6] = assay: Vascular permeability in rat (Whittle's method); type: in vivo, rat (Wistar strain, male)
Procedure: (ii) Vascular permeability in rat (Whittle's method)
The test compound was orally administered to each Wistar strain male rat (weighing about 150 g) which had been fasted overnight. After 55 minutes, 0.5 ml of a 0.5% Evans Blue solution was intravenously injected. Five minutes thereafter, 0.2 ml/100 g of a 3%(V/V) acetic acid solution was intraperitoneally injected. After 60 minutes from the injection of the acetic acid solution, the rats were killed by suffocation with chloroform. After immediate laparotomy, the dye leaked into the peritoneal cavity was washed out with physiological saline. The washings were made up with the saline to 30 ml and the absorbance at 640 mμ was measured to examine the effect of the test compounds by comparing the amounts of leaked dye per rat with one another.

[7] = system: phenylbenzoquinone writhing; assay: Analgesic activity, phenylbenzoquinone method in mouse; type: in vivo, mouse (ddY strain, male); conditions: for Frequency of writhing, mean ± S.E.: during 10 minutes
Procedure: (i) Phenylbenzoquinone method in mouse
The test compound was orally administered to each ddY strain male mouse (weighing 22±2 g; 8 mice per group). […] The frequency of writhing during 10 minutes from 5-minutes after the injection of phenylbenzoquinone was measured and compared with that of a control group to which a 0.5% Tween 80 solution was administered. The percent inhibition was calculated by the following equation: [formula]

Adjuvant arthritis = assay: Adjuvant arthritis; type: in vivo, rat (Sprague-Dawley strain, male); conditions: 1 mg/kg p.o./day, mean during one week
Procedure: A suspension containing 6 mg/ml of killed and dried Mycobacterium butyricum in liquid paraffin was subcutaneously injected into the subplantar region of the left hind paw of Sprague-Dawley strain male rats (weighing 180 to 200 g) in a proportion of 0.1 ml/rat. After 14 days, the rats having inflammatory paws of similar volumes were selected and the test compound was orally administered to the rats repeatedly at the rate shown in Table 4 during one week and the mean inhibitory percent of swelling during one week was determined.

in vivo = conditions: rat, po
[8] = system: pain threshold (brewer's yeast, hind paw); assay: Analgesic activity, Randall-Selitto method in rat; type: in vivo, rat (Wistar strain, male); conditions: for Inhibition: 100% = pain threshold raised by 150 g
Procedure: (ii) Randall-Selitto method in rat
After one hour, the test compound was orally administered. One hour thereafter, the pain threshold value was measured four times at a time interval of one hour. The mean value of four values obtained was taken as the pain threshold value of each group of rats. The activity of the drug was assumed to be 100% when the pain threshold value was raised by 150 g.

[9] = system: prostaglandin biosynthesis (homogenate of guinea pig's lung); assay: Inhibitory action on prostaglandin biosynthesis (TBA method); conditions: read-out: ID50
From the text: Using a homogenate of guinea pig's lung as an enzyme preparation for the biosynthesis of prostaglandin, the inhibitory activity of the test compound against the prostaglandin biosynthesis was examined by the TBA (thiobarbituric acid) method.

Glomerulonephritis = assay: Action on glomerulonephritis in rats; type: in vivo, rat (Wistar strain, male); conditions: 25 mg/kg p.o./day
From the text: (ii) Action on glomerulonephritis in rats
Glomerulonephritis was induced in Wistar strain male rats (each weighing 180 to 200 g) by use of an anti-rat's kidney rabbit serum obtained from the serum of a rabbit sensitized with a homogenate of rat's kidney cortice. To the rat producing stable proteinuria was orally administered the test compound repeatedly at the rate shown in Table 12 for 2 weeks, and the inhibition of uric protein was examined.

uric acid in plasma = assay: Uricosuric action (b), uric acid in plasma of uric acid loaded rats; type: in vivo, rat (Wistar strain, male)
Procedure: (b) After fasting overnight, the test compound was orally administered to a Wistar strain male rat weighing 150 to 200 g. After one hour, the rat was loaded with 100 mg/kg of uric acid by intraperitoneal administration. Thirty minutes thereafter, a blood sample was drawn from the cervical vein and the uric acid concentration in the plasma was determined by use of a kit (Uric acid test Wako) for the uric acid determination.

[10] = system: fever (Mycobacterium butyricum); assay: Antipyretic action; type: in vivo, rat (Wistar strain, female)
Procedure: A suspension (0.6 mg/0.1 ml) of killed and dried Mycobacterium butyricum in liquid paraffin was subcutaneously injected in an amount of 0.1 ml into the subplantar region of the hind paw of each Wistar strain female rat weighing about 180 g. After 14 hours, the fevered rats were divided into groups, and each test compound was orally administered to each group to examine the antipyretic effect.

[11] = system: threshold value of pain due to pressure stimuli (tail); conditions: for Analgesic effect: 100% = threshold raised by 160 g
[12] = system: Phenol Red (PSP) excretion; assay: Uricosuric action (a), inhibition of Phenol Red (PSP) excretion; type: in vivo, rabbit (male)
Procedure: (a) The action was examined by the method of B. B. Brodie et al. who reported that the inhibitory action on Phenol Red (PSP) excretion correlates with the uricosuric action [Proc. Soc. Exp. Biol. Med., 86, 884 (1954)]. To a male rabbit weighing 2 to 3 kg was intraperitoneally administered the test compound. After 30 minutes, 75 mg/kg of a Phenol Red suspension was injected into the pinna vein of the rabbit and 30 minutes thereafter a blood sample was drawn from the pinna vein. The blood sample was centrifuged and the serum was diluted with physiological saline. The diluted serum was treated with 0.1 N NaOH to develop the color. The concentration of Phenol Red in the serum was determined from the absorbance at 560 mμ.

For CC(C(=O)O)c1ccc(-c2cccs2)c(Cl)c1 (centres unmarked) [Compound C3], the TD50 at 18 h [1] was 27 mg/kg, the Intestine erosion incidence ([2]; 10 mg/kg p.o.) was 0/7 and the Gastric glandular score ([2]; 10 mg/kg p.o.) was 1.18 ± 0.30. For the same compound, the Intestine erosion incidence ([2]; 30 mg/kg p.o.) was 0/7, the Gastric glandular score ([2]; 30 mg/kg p.o.) was 1.96 ± 0.42 and the Intestine erosion incidence ([2]; 100 mg/kg p.o.) was 4/7. For the same compound, the Gastric glandular score ([2]; 100 mg/kg p.o.) was 3.39 ± 0.30, the inhibition in vivo at 1 mg/kg ([3]; 1 mg/kg p.o.) was 15.2% and the inhibition in vivo at 5 mg/kg ([3]; 5 mg/kg p.o.) was 42%. The “Dye leakage (P.S.B.) mean ± S.E.” value (Vascular permeability [4]; 5 mg/kg p.o.) was 289.3 ± 21.4 μg/20g, the “Dye leakage (P.S.B.) mean ± S.E.” value (Vascular permeability [4]; 10 mg/kg p.o.) was 254.2 ± 10.3 μg/20g and the “Dye leakage (P.S.B.) mean ± S.E.” value (Vascular permeability [4]; 20 mg/kg p.o.) was 226.9 ± 15.3 μg/20g. It also gave an Inhibition (Vascular permeability [4]; 5 mg/kg p.o.) of 9.8%, an Inhibition (Vascular permeability [4]; 10 mg/kg p.o.) of 20.8% and an Inhibition (Vascular permeability [4]; 20 mg/kg p.o.) of 29.3%. For the same compound, the ED30 (Vascular permeability [4]; po, mouse, read-out: ED30) was 20.5 mg/kg, the “Score, intestine, mean ± S.E.” value ([5]; 5 mg/kg × 3 p.o.) was 0.83 ± 0.21 and the “Score, stomach, mean ± S.E.” value ([5]; 5 mg/kg × 3 p.o.) was 1.67 ± 0.31. The “Score, intestine, mean ± S.E.” value ([5]; 15 mg/kg × 3 p.o.) was 1.50 ± 0.38, the “Score, stomach, mean ± S.E.” value ([5]; 15 mg/kg × 3 p.o.) was 2.36 ± 0.14 and the Inhibition (Vascular permeability [6]; 1 mg/kg p.o.) was 22.2%. For the same compound, the Inhibition (Vascular permeability [6]; 5 mg/kg p.o.) was 44.6%, the ED30 (Vascular permeability [6]; po, rat, read-out: ED30) was 1.7 mg/kg and the “Frequency of writhing, mean ± S.E.” value ([7]; 10 mg/kg p.o.) was 23.1 ± 3.5. For the same compound, the “Frequency of writhing, mean ± S.E.” value ([7]; 20 mg/kg p.o.) was 19.4 ± 3.7, the “Frequency of writhing, mean ± S.E.” value ([7]; 40 mg/kg p.o.) was 12.4 ± 3.0 and the inhibition in vivo at 10 mg/kg ([7]; Mus musculus, po, 10 min, writhing, 10 mg/kg p.o., read-out: Inhibition) was 2.1%. It also gave an inhibition in vivo at 20 mg/kg ([7]; Mus musculus, po, 10 min, writhing, 20 mg/kg p.o., read-out: Inhibition) of 17.8%, an inhibition in vivo at 40 mg/kg ([7]; Mus musculus, po, 10 min, writhing, 40 mg/kg p.o.) of 47.5% and an ED50 ([7]; po, mouse, read-out: ED50) of 50 mg/kg. For the same compound, the “Inhibitory percent of swelling” value (Adjuvant arthritis) was 8.1%, the LD50 (in vivo) was 270 mg/kg and the Inhibition ([8]; 1 mg/kg p.o.) was 14.4%. It also gave an Inhibition ([8]; 5 mg/kg p.o.) of 32.5%, an Inhibition ([8]; 25 mg/kg p.o.) of 56.6% and an ED50 ([8]; po, rat, read-out: ED50) of 16.5 mg/kg.

With CCCCC1C(=O)N(c2ccccc2)N(c2ccccc2)C1=O [Phenylbutazone] the IC50 [9] was 68 µM, the “Inhibition of uric protein” value (Glomerulonephritis; 7th day) was 1.0% and the “Inhibition of uric protein” value (Glomerulonephritis; 14th day) was 11.2%. The “Uric acid concentration in plasma, mean ± S.E.” value (uric acid in plasma; 50 mg/kg p.o.) was 5.3 ± 0.37 mg/dL, the “Uric acid concentration in plasma, mean ± S.E.” value (uric acid in plasma; 100 mg/kg p.o.) was 3.3 ± 0.25 mg/dL and the “Mean decrease in temp.” value ([10]; 5 mg/kg p.o.) was 0.27 °C. The “Mean decrease in temp.” value ([10]; 20 mg/kg p.o.) was 1.10 °C, the “Mean decrease in temp.” value ([10]; 100 mg/kg p.o.) was 1.35 °C and the ED1.0 ([10]; Rattus norvegicus, po) was 26.5 mg/kg. The Analgesic effect ([11]; 25 mg/kg p.o.) was 26%, the Analgesic effect ([11]; 100 mg/kg p.o.) was 70% and the ED50 ([11]; Mus musculus, po) was 53 mg/kg. For the same compound, the “Concentration of PSP in serum, mean ± S.E.” value ([12]; 50 mg/kg i.p.) was 174.0 ± 5.0 µg/mL and the “Concentration of PSP in serum, mean ± S.E.” value ([12]; 100 mg/kg i.p.) was 238.0 ± 15.9 µg/mL.
